Experimental data: paper PMC10746543, “Design principles for cyclin K molecular glue degraders” (Nature Chemical Biology, 2023)
Values joined by “and” are separate entries in the source; they are usually repeats but may differ in a detail not shown here. Identical values can stand only once. Like-named read-outs stand apart in the source and are kept apart here. Blank lines part the entries; values can stand above or below the molecule they belong to.

Key:
HEK293T cells = assay: Drug sensitivity assay (CellTiter-Glo viability) with or without MLN4924 pretreatment; format: cell-based, human; conditions: for EC50: Homo sapiens, HEK-293T; for Toxicity rescue: MLN4924-mediated cytotoxicity rescue, 10 µM used where n.d.
Summary of the method: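 HEK293T–Cas9 cells at 0.15 × 10^6 ml^−1 were treated with DMSO or 100 nM MLN4924 before plating. Test drugs were added 2 h later and exposure lasted 3 days. Viability was read by CellTiter-Glo luminescence and expressed relative to DMSO controls.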

CDK12–cyclin K and DDB1 = biological target: T1, CDK12–cyclin K and DDB1 (Homo sapiens, UniProt Q16531+Q9NYV4, K965R); assay: TR-FRET ternary complex formation assay (compound titration); format: binding; conditions: for TR-FRET signal at compound concentration: replicate titrations; for fold lower affinity than DS11: TR-FRET complex formation
T1 construct: His6–CDK12 (a.a. 713–1,052); full-length or beta-propeller B domain deletion (ΔBPB: a.a. 396–705 deleted) constructs of His6–DDB1ΔBPB, StrepII–Avi–DDB1, or His6–Spy–DDB1; made in house; host or cells: Trichoplusia ni High Five insect cells (baculovirus)
T1 sequence (Q9NYV4 713-1052 K965R): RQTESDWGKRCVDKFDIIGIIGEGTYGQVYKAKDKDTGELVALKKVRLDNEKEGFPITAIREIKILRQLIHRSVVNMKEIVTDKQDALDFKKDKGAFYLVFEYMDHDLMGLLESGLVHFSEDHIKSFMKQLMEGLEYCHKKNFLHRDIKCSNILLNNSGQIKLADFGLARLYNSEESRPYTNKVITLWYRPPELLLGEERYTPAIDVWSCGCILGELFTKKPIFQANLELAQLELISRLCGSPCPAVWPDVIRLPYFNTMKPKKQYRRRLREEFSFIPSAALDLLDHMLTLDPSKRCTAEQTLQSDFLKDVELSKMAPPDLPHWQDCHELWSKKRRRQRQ
T1 sequence (O75909 1-267 partner): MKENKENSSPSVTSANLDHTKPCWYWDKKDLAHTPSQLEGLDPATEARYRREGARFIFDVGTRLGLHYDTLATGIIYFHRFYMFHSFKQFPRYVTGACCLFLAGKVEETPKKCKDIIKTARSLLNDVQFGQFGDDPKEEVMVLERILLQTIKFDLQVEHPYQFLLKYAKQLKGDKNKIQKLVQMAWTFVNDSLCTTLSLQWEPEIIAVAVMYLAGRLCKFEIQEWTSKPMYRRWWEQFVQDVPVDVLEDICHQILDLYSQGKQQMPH
T1 sequence (Q16531 whole entry): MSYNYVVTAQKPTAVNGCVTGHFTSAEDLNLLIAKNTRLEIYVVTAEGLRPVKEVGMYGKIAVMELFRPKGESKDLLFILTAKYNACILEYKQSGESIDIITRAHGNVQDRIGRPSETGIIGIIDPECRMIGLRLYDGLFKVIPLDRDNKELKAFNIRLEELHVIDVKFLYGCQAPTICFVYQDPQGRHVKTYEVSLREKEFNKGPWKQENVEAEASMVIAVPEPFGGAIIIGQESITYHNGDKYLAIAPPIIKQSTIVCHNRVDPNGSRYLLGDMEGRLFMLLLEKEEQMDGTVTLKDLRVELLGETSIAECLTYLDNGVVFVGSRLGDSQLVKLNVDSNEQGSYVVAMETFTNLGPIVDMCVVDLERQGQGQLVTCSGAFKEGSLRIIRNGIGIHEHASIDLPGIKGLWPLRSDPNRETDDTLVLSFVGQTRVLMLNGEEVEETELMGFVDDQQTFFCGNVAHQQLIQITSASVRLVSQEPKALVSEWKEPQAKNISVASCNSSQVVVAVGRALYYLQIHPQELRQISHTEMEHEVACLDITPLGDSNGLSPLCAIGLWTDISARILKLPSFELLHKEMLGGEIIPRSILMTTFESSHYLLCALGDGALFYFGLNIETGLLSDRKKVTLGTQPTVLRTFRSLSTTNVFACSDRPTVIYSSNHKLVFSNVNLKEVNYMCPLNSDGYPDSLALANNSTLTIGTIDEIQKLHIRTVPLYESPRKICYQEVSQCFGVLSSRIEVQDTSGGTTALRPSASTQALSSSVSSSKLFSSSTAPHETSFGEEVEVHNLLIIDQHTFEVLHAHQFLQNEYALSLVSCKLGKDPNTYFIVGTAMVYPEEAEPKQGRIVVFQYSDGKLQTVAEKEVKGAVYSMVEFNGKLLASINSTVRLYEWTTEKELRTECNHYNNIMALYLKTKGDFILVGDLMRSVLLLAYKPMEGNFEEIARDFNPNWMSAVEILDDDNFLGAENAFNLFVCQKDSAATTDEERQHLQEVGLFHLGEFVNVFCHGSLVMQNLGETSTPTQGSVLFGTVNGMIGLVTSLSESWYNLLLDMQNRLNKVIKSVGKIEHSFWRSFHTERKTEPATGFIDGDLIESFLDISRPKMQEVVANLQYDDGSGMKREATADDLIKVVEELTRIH
Summary of the method: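 Read-out used a 70 μs delay to cut background fluorescence; TR-FRET signal taken as the 520 nm/490 nm emission ratio.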

[1] = system: cyclin K–eGFP degradation reporter; assay: Cyclin K reporter stability analysis (dual-color cyclin K–eGFP reporter); format: cell-based, human
Protocol: HEK293T–Cas9 cells expressing the cyclin K–eGFP degradation reporter were resuspended at 1 × 10^6 ml^−1 and 50 µl of cell suspension was seeded in non-cell-culture-treated 384-well plates. Shortly after, cells were treated with drug or DMSO for 5 h. […] The fluorescent signal was quantified by flow cytometry (LSRFortessa flow cytometer, BD Biosciences). Using FlowJo (flow cytometry analysis software, BD Biosciences), the geometric mean of the eGFP and mCherry fluorescent signal for round and mCherry-positive cells was calculated. The ratio of eGFP to mCherry was normalized to the average of three DMSO-treated controls.

[2] = Supplementary Table 2, HEK293T viability, 72 h, compound alone, read-out: Cellular assays EC50
[3] = compound concentration 0.468 nM
[4] = compound concentration 7.92001 nM
[5] = compound concentration 15.84 nM
[6] = compound concentration 30.96 nM
[7] = compound concentration 62.6401 nM
[8] = compound concentration 125.28 nM
[9] = compound concentration 244.8 nM
[10] = compound concentration 993.601 nM
[11] = compound concentration 2001.6 nM
[12] = in vitro complex formation, 50 nM CDK12–cyclin K, 100 nM DDB1, text and figures, read-out: TR-FRET EC50
[13] = sheet MOESM7, read-out: log TR-FRET EC50 (converted)
[14] = Supplementary Table 2, read-out: TR-FRET EC50 TR-FRET
[15] = compound concentration 79.2001 nM
[16] = compound concentration 158.4 nM
[17] = compound concentration 309.6 nM
[18] = compound concentration 626.401 nM
[19] = compound concentration 1252.8 nM
[20] = compound concentration 9936.01 nM
[21] = compound concentration 20016 nM
[22] = Supplementary Table 2, HEK293T cycK-eGFP reporter, 5 h, read-out: Cellular assays DC50

- TR-FRET signal (CDK12–cyclin K and DDB1; [3]): 0.2538 and 0.248 and 0.2145 and 0.2136
- TR-FRET signal, individual replicate (CDK12–cyclin K and DDB1; [3]): 0.2538 and 0.248 and 0.2145 and 0.2136
- TR-FRET signal at compound concentration (CDK12–cyclin K and DDB1; [3]): 0.2538 and 0.248 and 0.2145 and 0.2136
- TR-FRET signal (CDK12–cyclin K and DDB1; compound concentration 2.16 nM): 0.2768 and 0.2874 and 0.2634 and 0.2686
- TR-FRET signal, individual replicate (CDK12–cyclin K and DDB1; compound concentration 2.16 nM): 0.2768 and 0.2874 and 0.2634 and 0.2686
- TR-FRET signal at compound concentration (CDK12–cyclin K and DDB1; compound concentration 2.16 nM): 0.2768 and 0.2874 and 0.2634 and 0.2686
- TR-FRET signal (CDK12–cyclin K and DDB1; compound concentration 3.6 nM): 0.3502 and 0.3555 and 0.3511 and 0.3733
- TR-FRET signal, individual replicate (CDK12–cyclin K and DDB1; compound concentration 3.6 nM): 0.3502 and 0.3555 and 0.3511 and 0.3733
- TR-FRET signal at compound concentration (CDK12–cyclin K and DDB1; compound concentration 3.6 nM): 0.3502 and 0.3555 and 0.3511 and 0.3733
- TR-FRET signal (CDK12–cyclin K and DDB1; [4]): 0.4902 and 0.4911 and 0.5114 and 0.5651
- TR-FRET signal, individual replicate (CDK12–cyclin K and DDB1; [4]): 0.4902 and 0.4911 and 0.5114 and 0.5651
- TR-FRET signal at compound concentration (CDK12–cyclin K and DDB1; [4]): 0.4902 and 0.4911 and 0.5114 and 0.5651
- TR-FRET signal (CDK12–cyclin K and DDB1; [5]): 0.7316 and 0.7507 and 0.8127 and 0.857
- TR-FRET signal, individual replicate (CDK12–cyclin K and DDB1; [5]): 0.7316 and 0.7507 and 0.8127 and 0.857
- TR-FRET signal at compound concentration (CDK12–cyclin K and DDB1; [5]): 0.7316 and 0.7507 and 0.8127 and 0.857
- TR-FRET signal (CDK12–cyclin K and DDB1; [6]): 1.126 and 1.191 and 1.297 and 1.247
- TR-FRET signal, individual replicate (CDK12–cyclin K and DDB1; [6]): 1.126 and 1.191 and 1.297 and 1.247
- TR-FRET signal at compound concentration (CDK12–cyclin K and DDB1; [6]): 1.126 and 1.191 and 1.297 and 1.247
- TR-FRET signal (CDK12–cyclin K and DDB1; [7]): 1.6143 and 1.736 and 1.841 and 1.867
- TR-FRET signal, individual replicate (CDK12–cyclin K and DDB1; [7]): 1.6143 and 1.736 and 1.841 and 1.867
- TR-FRET signal at compound concentration (CDK12–cyclin K and DDB1; [7]): 1.6143 and 1.736 and 1.841 and 1.867
- TR-FRET signal (CDK12–cyclin K and DDB1; [8]): 2.093 and 2.298 and 2.427 and 2.467
- TR-FRET signal, individual replicate (CDK12–cyclin K and DDB1; [8]): 2.093 and 2.298 and 2.427 and 2.467
- TR-FRET signal at compound concentration (CDK12–cyclin K and DDB1; [8]): 2.093 and 2.298 and 2.427 and 2.467
- TR-FRET signal (CDK12–cyclin K and DDB1; [9]): 2.523 and 2.773 and 2.7872 and 2.833
- TR-FRET signal, individual replicate (CDK12–cyclin K and DDB1; [9]): 2.523 and 2.773 and 2.7872 and 2.833
- TR-FRET signal at compound concentration (CDK12–cyclin K and DDB1; [9]): 2.523 and 2.773 and 2.7872 and 2.833
- TR-FRET signal (CDK12–cyclin K and DDB1; [10]): 2.957 and 3.301 and 3.125 and 3.145
- TR-FRET signal, individual replicate (CDK12–cyclin K and DDB1; [10]): 2.957 and 3.301 and 3.125 and 3.145
- TR-FRET signal at compound concentration (CDK12–cyclin K and DDB1; [10]): 2.957 and 3.301 and 3.125 and 3.145
- TR-FRET signal (CDK12–cyclin K and DDB1; [11]): 3.117 and 3.31 and 3.185 and 3.127
- TR-FRET signal, individual replicate (CDK12–cyclin K and DDB1; [11]): 3.117 and 3.31 and 3.185 and 3.127
- TR-FRET signal at compound concentration (CDK12–cyclin K and DDB1; [11]): 3.117 and 3.31 and 3.185 and 3.127
- EC50 (CDK12–cyclin K and DDB1; [12]): 60 nM
- EC50 (CDK12–cyclin K and DDB1; [13]): 60.3 nM
- EC50 (CDK12–cyclin K and DDB1; source data sheet correlations, read-out: TR-FRET EC50): 60.3 nM
- DC50 ([1]; source data sheet correlations, read-out: DC50): 724 nM
Compound: CC[C@H](CO)Nc1nc(NCc2ccc3ccccc3c2)c2ncn(C(C)C)c2n1 [DS08]
- EC50 (HEK293T cells; Supplementary Fig. 5, HEK293T, CellTiter Glo, 72h, read-out: Viability EC50, no MLN4924): 3380 nM
- EC50 (HEK293T cells; [2]): 3500 nM
- Toxicity rescue (HEK293T cells; Supplementary Table 2): 186%

- EC50 (CDK12–cyclin K and DDB1; [14]): 349 nM
- fold lower affinity than DS11 (CDK12–cyclin K and DDB1): 5-10 fold
- TR-FRET signal (CDK12–cyclin K and DDB1; compound concentration 4.68 nM): 0.1538 and 0.1597
- TR-FRET signal at compound concentration (CDK12–cyclin K and DDB1; compound concentration 4.68 nM): 0.1538 and 0.1597
- TR-FRET signal (CDK12–cyclin K and DDB1; compound concentration 21.6 nM): 0.2215 and 0.2268
- TR-FRET signal at compound concentration (CDK12–cyclin K and DDB1; compound concentration 21.6 nM): 0.2215 and 0.2268
- TR-FRET signal (CDK12–cyclin K and DDB1; compound concentration 36 nM): 0.3624 and 0.3872
- TR-FRET signal at compound concentration (CDK12–cyclin K and DDB1; compound concentration 36 nM): 0.3624 and 0.3872
- TR-FRET signal (CDK12–cyclin K and DDB1; [15]): 0.5721 and 0.6282
- TR-FRET signal at compound concentration (CDK12–cyclin K and DDB1; [15]): 0.5721 and 0.6282
- TR-FRET signal (CDK12–cyclin K and DDB1; [16]): 0.8913 and 0.9385
- TR-FRET signal at compound concentration (CDK12–cyclin K and DDB1; [16]): 0.8913 and 0.9385
- TR-FRET signal (CDK12–cyclin K and DDB1; [17]): 1.311 and 1.295
- TR-FRET signal at compound concentration (CDK12–cyclin K and DDB1; [17]): 1.311 and 1.295
- TR-FRET signal (CDK12–cyclin K and DDB1; [18]): 1.632 and 1.6565
- TR-FRET signal at compound concentration (CDK12–cyclin K and DDB1; [18]): 1.632 and 1.6565
- TR-FRET signal (CDK12–cyclin K and DDB1; [19]): 1.8858 and 2.021
- TR-FRET signal at compound concentration (CDK12–cyclin K and DDB1; [19]): 1.8858 and 2.021
- TR-FRET signal (CDK12–cyclin K and DDB1; compound concentration 2448 nM): 2.206 and 2.209
- TR-FRET signal at compound concentration (CDK12–cyclin K and DDB1; compound concentration 2448 nM): 2.206 and 2.209
- TR-FRET signal (CDK12–cyclin K and DDB1; [20]): 2.4811 and 2.469
- TR-FRET signal at compound concentration (CDK12–cyclin K and DDB1; [20]): 2.4811 and 2.469
- TR-FRET signal (CDK12–cyclin K and DDB1; [21]): 2.543 and 2.456
- TR-FRET signal at compound concentration (CDK12–cyclin K and DDB1; [21]): 2.543 and 2.456
- EC50 (CDK12–cyclin K and DDB1; [12]): 349 ± 15 nM
- EC50 (CDK12–cyclin K and DDB1; [13]): 349 nM
- DC50 [1, 22]: > 10000 nM
Compound: CC[C@H](CO)Nc1nc(NCCCCc2ccccc2)c2ncn(C(C)C)c2n1 [DS09]
- EC50 (HEK293T cells; [2]): > 10000 nM
- Toxicity rescue (HEK293T cells; Supplementary Table 2): 0%

- EC50 (CDK12–cyclin K and DDB1; [14]): 595 nM
- fold lower affinity than DS11 (CDK12–cyclin K and DDB1): 5-10 fold
- TR-FRET signal at compound concentration (CDK12–cyclin K and DDB1; compound concentration 4.68 nM): 0.1344 and 0.1608
- TR-FRET signal at compound concentration (CDK12–cyclin K and DDB1; compound concentration 21.6 nM): 0.1474 and 0.1725
- TR-FRET signal at compound concentration (CDK12–cyclin K and DDB1; compound concentration 36 nM): 0.1731 and 0.2063
- TR-FRET signal at compound concentration (CDK12–cyclin K and DDB1; [15]): 0.1998 and 0.2552
- TR-FRET signal at compound concentration (CDK12–cyclin K and DDB1; [16]): 0.2546 and 0.3178
- TR-FRET signal at compound concentration (CDK12–cyclin K and DDB1; [17]): 0.334 and 0.4076
- TR-FRET signal at compound concentration (CDK12–cyclin K and DDB1; [18]): 0.4243 and 0.5117
- TR-FRET signal at compound concentration (CDK12–cyclin K and DDB1; [19]): 0.5049 and 0.5958
- TR-FRET signal at compound concentration (CDK12–cyclin K and DDB1; compound concentration 2448 nM): 0.6152 and 0.6779
- TR-FRET signal at compound concentration (CDK12–cyclin K and DDB1; [20]): 0.7339 and 0.7716
- TR-FRET signal at compound concentration (CDK12–cyclin K and DDB1; [21]): 0.6991 and 0.7616
- EC50 (CDK12–cyclin K and DDB1; [12]): 595 ± 91 nM
- DC50 [1, 22]: > 10000 nM
Compound: CC[C@H](CO)Nc1nc(NCCCCCCc2ccccc2)c2ncn(C(C)C)c2n1 [DS10]
- EC50 (HEK293T cells; [2]): > 10000 nM
- Toxicity rescue (HEK293T cells; Supplementary Table 2): 0%
